Source: patent US20210147381A1, “1,2,3,4-SUBSTITUTED QUINOLINE COMPOUNDS AS SIP MODULATORS” (AbbVie Deutschland GmbH & Co. KG, priority 2017, published 2021)
Where a name gives a salt, the structure may show the parent alone.

Tests used:
Assay type in all cases: cell-based
[1] = biological target: T1, human S1P1 receptor (S1PR1) (Homo sapiens, UniProt P21453); test: Intracellular Ca2+ release (method 1), agonist potency, S1P1; details: CHO-K1 cells expressing human S1PR1
T1 construct: host or cells: CHO-K1
T1 sequence (P21453 whole entry): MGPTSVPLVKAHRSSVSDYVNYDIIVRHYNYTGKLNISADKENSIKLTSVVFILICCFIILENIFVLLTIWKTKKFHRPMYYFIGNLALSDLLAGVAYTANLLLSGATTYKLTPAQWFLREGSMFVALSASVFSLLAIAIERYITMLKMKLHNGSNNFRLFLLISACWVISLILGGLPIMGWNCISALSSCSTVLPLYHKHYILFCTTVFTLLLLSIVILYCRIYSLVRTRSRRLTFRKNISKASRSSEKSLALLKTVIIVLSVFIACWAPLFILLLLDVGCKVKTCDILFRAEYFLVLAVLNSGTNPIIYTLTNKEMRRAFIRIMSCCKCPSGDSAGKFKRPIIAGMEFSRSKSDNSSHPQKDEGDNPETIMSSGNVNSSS
How it was run: (§1)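 CHO-K1 cells co-expressing the human S1P receptor, aequorin and Gq/i5 were loaded with Calcium 5 dye (1 h, 37° C), then equilibrated 45 min at RT in HBSS/20 mM Hepes/2.5 mM probenecid/0.1% BSA, pH 7.4. Fluorescence upon serially diluted compound fitted by 4-parameter logistic; EC50 and Emax normalized to phospho-fingolimod (100%).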

[2] = biological target: T2, human S1P3 receptor (S1PR3) (Homo sapiens, UniProt Q99500); test: Intracellular Ca2+ release (method 1), agonist potency, S1P3; details: CHO-K1 cells expressing human S1PR3
T2 construct: host or cells: CHO-K1
T2 sequence (Q99500 whole entry): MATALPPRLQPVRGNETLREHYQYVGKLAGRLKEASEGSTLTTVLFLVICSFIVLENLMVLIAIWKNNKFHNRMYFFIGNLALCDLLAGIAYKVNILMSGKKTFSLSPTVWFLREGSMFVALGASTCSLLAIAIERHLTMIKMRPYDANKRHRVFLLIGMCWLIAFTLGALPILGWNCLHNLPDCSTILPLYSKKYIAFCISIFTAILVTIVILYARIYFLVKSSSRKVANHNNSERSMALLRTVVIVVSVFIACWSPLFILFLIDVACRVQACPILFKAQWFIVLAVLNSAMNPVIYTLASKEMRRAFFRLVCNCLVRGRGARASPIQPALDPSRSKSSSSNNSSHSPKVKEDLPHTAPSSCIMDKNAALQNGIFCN
Description: Agonistic activity and efficacy of compounds was assessed in recombinant cells using method 1 described below.
Agonist potency and efficacy were assessed by measurement of intracellular Ca^2+ release. Recombinant CHO-K1 cells (Euroscreen, Brussels, Belgium) expressing human S1PR5, S1PR1, S1PR3 or S1PR4 receptors, aequorin, and GTP binding protein Gq/i5 were cultured using a medium containing nutrient mixture F-12 Ham (Sigma-Aldrich) with 10% FBS, and 100 μg/mL gentamicin and equilibrated at 5% CO2.
15,000 cells in 20 μL medium were seeded into Biocoat poly-D-Lysine coated 384 well plates (Becton Dickinson #35-6663) and grown to 95% confluency after 24 h.
Culture medium was replaced by an assay buffer consisting of HBBS with Ca^2+ and Mg^2+ (Invitrogen #14025-050), 20 mmol/L Hepes (Sigma-Aldrich #H-3375), 2.5 mmol/L probenecid (Sigma-Aldrich #P-8761, and 0.1% BSA (Sigma-Aldrich #A-7030) pH 7.4. The Calcium 5 no-wash FLIPR assay kit (Molecular Devices #5000625) was performed as described in the kit instructions. Cells were incubated with Calcium 5 dye for 1 h at 37° C., 5% CO2 in the dark. After 45 min adaptation to RT assessment of agonist stimulation of intracellular Ca^2+ release was performed by addition of test compounds at various concentrations obtained by serial dilution. Phospho-fingolimod was used as positive control and reference agonist (intrinsic activity 100%).
Agonism of test compounds at the human S1Px receptors were characterized by the EC50 values (potencies) deduced from a nonlinear 4 parametric logistic curve fit to the measured fluorescence data after normalization to the lower and upper plateaus of the fitted reference agonist's (phospho-fingolimod)effect curve and by their efficacy (Emax) values represented by their maximum achievable effects in % of the reference agonist's efficacy, which is defined as an Emax of 100%.

[3] = biological target: T3, human S1P5 receptor (S1PR5) (Homo sapiens, UniProt Q9H228); test: Intracellular Ca2+ release (method 1), agonist potency and efficacy, S1P5; details: for Emax: maximum effect in % of reference agonist phospho-fingolimod (100%), read-out: hS1P5 EMax; for EC50: recombinant CHO-K1 cells expressing human S1PR5, aequorin, Gq/i5, Ca2+ release, read-out: S1P5 EC50 range
T3 construct: host or cells: CHO-K1
T3 sequence (Q9H228 whole entry): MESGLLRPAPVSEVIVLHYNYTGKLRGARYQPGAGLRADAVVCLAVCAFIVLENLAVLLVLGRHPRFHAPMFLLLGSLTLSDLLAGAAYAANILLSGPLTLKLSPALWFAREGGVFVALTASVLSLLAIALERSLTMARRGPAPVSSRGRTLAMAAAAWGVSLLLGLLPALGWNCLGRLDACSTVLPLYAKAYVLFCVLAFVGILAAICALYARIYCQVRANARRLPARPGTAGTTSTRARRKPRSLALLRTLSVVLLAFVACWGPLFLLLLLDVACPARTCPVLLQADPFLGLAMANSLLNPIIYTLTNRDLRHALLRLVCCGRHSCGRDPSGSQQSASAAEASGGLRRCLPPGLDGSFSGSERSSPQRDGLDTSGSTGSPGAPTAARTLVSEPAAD
How it was run: as §1

[4] = biological target: T4, human S1P4 receptor (S1PR4) (Homo sapiens, UniProt O95977); test: Intracellular Ca2+ release (method 1), agonist potency, S1P4; details: CHO-K1 cells expressing human S1PR4
T4 construct: host or cells: CHO-K1
T4 sequence (O95977 1-384): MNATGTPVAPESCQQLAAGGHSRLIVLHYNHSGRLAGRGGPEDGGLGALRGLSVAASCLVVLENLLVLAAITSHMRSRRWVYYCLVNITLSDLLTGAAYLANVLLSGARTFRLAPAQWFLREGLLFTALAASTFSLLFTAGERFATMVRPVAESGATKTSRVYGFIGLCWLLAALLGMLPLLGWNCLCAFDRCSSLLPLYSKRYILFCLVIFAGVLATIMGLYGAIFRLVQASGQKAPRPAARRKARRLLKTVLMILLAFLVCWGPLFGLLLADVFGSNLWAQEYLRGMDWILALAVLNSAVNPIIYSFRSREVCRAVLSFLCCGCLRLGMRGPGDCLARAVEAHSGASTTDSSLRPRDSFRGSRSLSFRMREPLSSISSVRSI
How it was run: as §1

Row | SMILES | EC50 ([1]; cells given as bound) [nM] | EC50 [2] [nM] | Emax [3] [%] | EC50 [3] [nM] | EC50 [4] [nM] | EC50 ([4]; cells given as bound) [nM] | EC50 [1] [nM]
1 | O=C(O)CCN1Cc2ccc(C#Cc3cccc(Cl)c3)cc2C2(CC2)C1 [Compound 33, 3-(6′-((3-chlorophenyl)ethynyl)-1′H-spiro[cyclopropane-1,4′-isoquinolin]-2′(3′H)-yl)propanoic acid acetic acid salt (1:1)] | > 1000 | > 1000 | < 50 | < 10 | < 10 | – | –
2 | CC(C)Oc1ccc(C#Cc2ccc3c(c2)C2(CC2)CN(CCCC(=O)O)C3)cc1 [Compound 46, 4-(6′-((4-isopropoxyphenyl)ethynyl)-1′H-spiro[cyclopropane-1,4′-isoquinolin]-2′(3′H)-yl)butanoic acid] | > 1000 | > 1000 | > 100 | < 10 | – | > 1000 | –
3 | CCCn1cc(C#Cc2ccc3c(c2)C2(CC2)CN(CCC(=O)O)C3)cn1 [Compound 42, 3-(6′-((1-propyl-1H-pyrazol-4-yl)ethynyl)-1′H-spiro[cyclopropane-1,4′-isoquinolin]-2′(3′H)-yl)propanoic acid acetic acid salt (1:1)] | > 1000 | > 1000 | 50 to 100 | 1000 to 10000 | – | > 1000 | –
4 | CCc1cccc(Cl)c1COc1ccc2c(c1)C1(CC1)CN(C(C)C(=O)O)C2 (stereo not drawn) [Compound 28, 2-(6′-((2-Chloro-6-ethylbenzyl)oxy)-1′H-spiro[cyclopropane-1,4′-isoquinolin]-2′(3′H)-yl)propanoic acid] | > 1000 | > 1000 | 50 to 100 | 10 to 100 | 100 to 1000 | – | –
5 | O=C(O)CCCN1Cc2ccc(OCc3cccc(F)c3F)cc2C2(CC2)C1 [Compound 21, 4-(6′-((2,3-Difluorobenzyl)oxy)-1′H-spiro[cyclopropane-1,4′-isoquinolin]-2′(3′H)-yl)butanoic acid] | > 1000 | > 1000 | < 50 | 10 to 100 | 100 to 1000 | – | –
6 | O=C(O)CCN1Cc2ccc(C#Cc3cc(F)cc(F)c3)cc2C2(CC2)C1 [Compound 32, 3-(6′-((3,5-difluorophenyl)ethynyl)-1′H-spiro[cyclopropane-1,4′-isoquinolin]-2′(3′H)-yl)propanoic acid acetic acid salt (1:1)] | > 1000 | > 1000 | 50 to 100 | < 10 | 100 to 1000 | – | –
7 | O=C(O)CCCN1Cc2ccc(OCc3ccccc3OC(F)(F)F)cc2C2(CC2)C1 [Compound 14, 4-(6′-((2-(Trifluoromethoxy)benzyl)oxy)-1′H-spiro[cyclopropane-1,4′-isoquinolin]-2′(3′H)-yl)butanoic acid] | > 1000 | > 1000 | 50 to 100 | < 10 | 100 to 1000 | – | –
8 | O=C(O)CCCN1Cc2ccc(OCc3ccccc3Cl)cc2C2(CC2)C1 [Compound 25, 4-(6′-((2-Chlorobenzyl)oxy)-1′H-spiro[cyclopropane-1,4′-isoquinolin]-2′(3′H)-yl)butanoic acid] | > 1000 | > 1000 | 50 to 100 | < 10 | 100 to 1000 | – | –
9 | O=C(O)CCCN1Cc2ccc(C#Cc3ccc(OC(F)(F)F)cc3)cc2C2(CC2)C1 [Compound 48, 4-(6′-((4-(trifluoromethoxy)phenyl)ethynyl)-1′H-spiro[cyclopropane-1,4′-isoquinolin]-2′(3′H)-yl)butanoic acid] | > 1000 | > 1000 | 50 to 100 | 10 to 100 | – | > 1000 | –
10 | CC(C)c1ccc(C#Cc2ccc3c(c2)C2(CC2)CN(CCC(=O)O)C3)cc1 [Compound 31, 3-(6′-((4-isopropylphenyl)ethynyl)-1′H-spiro[cyclopropane-1,4′-isoquinolin]-2′(3′H)-yl)propanoic acid acetic acid salt (1:1)] | – | > 1000 | > 100 | < 10 | – | > 1000 | 100 to 1000
11 | CCOc1ccc(C#Cc2ccc3c(c2)C2(CC2)CN(CCCC(=O)O)C3)cc1 [Compound 3, 2′-(3-carboxypropyl)-6′-((4-ethoxyphenyl)ethynyl)-2′,3′-dihydro-1′H-spiro[cyclopropane-1,4′-isoquinolin]-2′-ium 2,2,2-trifluoroacetate] | – | > 1000 | 50 to 100 | < 10 | – | > 1000 | 100 to 1000
12 | CC(C)c1ccc(C#Cc2ccc3c(c2)C2(CC2)CN(CCCC(=O)O)C3)cc1 [Compound 1, 2′-(3-carboxypropyl)-6′-((4-isopropylphenyl)ethynyl)-2′,3′-dihydro-1′H-spiro[cyclopropane-1,4′-isoquinolin]-2′-ium 2,2,2-trifluoroacetate] | – | > 1000 | 50 to 100 | < 10 | – | > 1000 | 100 to 1000
